Experimental data: US9549943B2, “A3 adenosine receptor ligands for use in treatment of a sexual dysfunction” (CAN-FITE BIOPHARMA LTD., priority 2012, dated 2017)

What was measured:
[1] = system: Patients with Moderate-to-Severe Dry Eye Disease; assay: Phase 3 clinical study of oral CF101 in dry eye disease; patient-reported sexual effects; format: in vivo, human
Text: The clinical study (the “Study”) was a Phase 3, Randomized, Double-Masked, Placebo-Controlled, Dose-Finding, Parallel-Group Study of the Safety and Efficacy of Daily CF101 Administered Orally in Patients with Moderate-to-Severe Dry Eye Disease, keratoconjunctivitis sicca (KCS). CF101 is an experimental pharmaceutical composition where the active ingredient is IB-MECA. The study had two primary objectives: (i) determine the efficacy of oral administered CF101, as compared to placebo, when administered at doses of either 0.1 mg or 1.0 mg (namely 0.1 and 1 mg of IB-MECA per each administration, respectively) twice daily for 24 weeks in patients with KCS, and (ii) determine the safety of this drug in the patients. Patients were randomized to receive pills of either CF101 0.1 mg, CF101 1.0 mg, or matching placebo, given orally twice daily (BID) for 24 weeks. A Screening Period of up to 4 weeks that includes a 2-week run-in period that preceded the 24-week treatment period, followed by a 2-week follow-up period. The patients that were enrolled in the study had to meet a number of inclusion criteria (namely criteria that had to be matched for a human subject to participate in the study), including (i) being 18 years of age and over, (ii) being diagnosed with moderate-to-severe Aqueous-Deficient Dry Eye (including Sjögren's Syndrome dry eye), as defined by acceptable clinical criteria, and (iii) a variety of other criteria. Patients that met certain exclusion criteria that related to certain ophthalmic conditions and use of other medications. Clinical outcome in improving KCS symptoms was determined through a variety of relevant ophthalmic parameters. In addition, adverse events were recorded for each patient throughout the study and all effects reported by patients were reported. By the time of filing this patent application the study was still ongoing. […] It should be noted that at this time of reporting of these events the study was still masked, namely it is not known whether the patients received CF101 or placebo and if CF101 than the dose of the drug.

[2] = system: patients with moderated to severe Plaque Psoriasis (PS); assay: Phase 2 study of oral CF101 in Plaque Psoriasis; sexual effects; format: in vivo, human; conditions: CF101 1 mg, 2 mg and 4 mg orally twice daily for 12 weeks
Description: In a further Phase 2 study, randomized, double-blind, dose-ranging, placebo-controlled study was conducted to determine safety and activity of CF101 administered orally in patients with moderated to severe Plaque Psoriasis (PS). CF101 was administered at 1 mg. 2 mg and 4 mg twice daily for 12 weeks.

[3] = system: patients with active rheumatoid arthritis (RA); assay: Phase 2 study of oral CF101 added to weekly Methotrexate in rheumatoid arthritis; sexual effects; format: in vivo, human; conditions: CF101 0.1 mg or 1 mg tablets orally every 12 h for 12 weeks, with weekly MTX
Description: Phase 2 study in patients with active rheumatoid arthritis (RA) (randomized, double-blind, placebo-controlled), treated in parallel with CF101 administrated orally when added to weekly Methotrexate (MTX). The patients were given CF101 either 0.1 mg or 1 mg tablets or placebo tablets, taken orally every 12 h for 12 weeks. Washout of other disease-modifying antirheumatic drugs (DMARDs), including biological agents was occurring prior to dosing.

[4] = system: Male C57BL/6j mice; assay: Concanavalin A mouse model treated with allosteric enhancer; erection observed; format: in vivo; conditions: 100 μg/kg orally 8 h after Con.A and 2 h before termination, no signs in control-untreated group
Description: Male C57BL/6j mice, 8 weeks of age, were injected intravenously (tail vein) with concanavalin A (Con.A) (20 mg/kg). twenty four hours after Con.A injection, levels of alanine aminotransferase (ALT) and aspirate aminotransferase (AST) were measured in the serum.
The allosteric compound, Luf6000 (also known as N-(3,4-dichloro-phenyl)-2-cyclohexyl-1H-imidazo[4,5-c]quinolin-4-amine), was orally administered at a dose of 100 μg/kg 8 h after Con.A administration and 2 h before termination.

## CNC(=O)[C@H]1O[C@@H](n2cnc3c(NCc4cccc(I)c4)ncnc32)[C@H](O)[C@@H]1O [CF101, N^6-(3-iodobenzyl)-adenosine-5′-N-methyluronamide]
[1]; oral CF101, patients with moderate to severe dry eye disease (summary statement)
  erection or increase in sexual desire in patients: some of the patients experienced erection or increase in sexual desire
[1]; patient
  period during which erection occurred every day after each intake: about 10 days
[1]; patient (code 104507), oral, twice daily, 0.1 mg or 1 mg, study still masked
  sexual potency reported by patient: increase of sexual potency
[1]; patient, after each CF101 intake
  time after intake to unprovoked erection: around 30 minutes
[1]; patient, oral, twice daily, 0.1 mg or 1 mg, study still masked
  erection reported by patient after intake: unprovoked erection
[2]
  erection or increase in sexual desire in patients: some of the patients experienced erection or increase in sexual desire
[3]
  erection or increase in sexual desire in patients: some of the patients experienced erection or increase in sexual desire

## Clc1ccc(Nc2nc3ccccc3c3[nH]c(C4CCCCC4)nc23)cc1Cl [Luf6000, N-(3,4-dichloro-phenyl)-2-cyclohexyl-1H-imidazo[4,5-c]quinolin-4-amine]
[4]
  erection in treated mice: erection was noticed
[4]; listed as LUF6000
  erection in treated mice: exhibited erection
